# Measured values taken from EP0565593B1, “REDUCING PESTICIDAL INTERACTIONS IN CROPS” (priority 1990, dated 1992).
# “And” between values parts separate entries of the source, which are not always exact repeats. Equal entries are not always repeated. Where two headings read alike, the source gives them in different places.
# What was measured:
# Velvetleaf (VELE) [1] = test: whole plant or invertebrate; type: in vivo, Abutilon theophrasti
# Giant foxtail (GIFT) = test: whole plant or invertebrate; type: in vivo
# Velvetleaf (VELE) [2] = type: in vivo, Abutilon theophrasti
# Corn [3] = system: Corn
# Shattercane (SHCA) = type: in vivo
# Corn [4] = system: Corn; remark: listed apart in the source
# [5] = […], antidote number given but rate '-', 14 days after PPI (Table 34)
# [6] = […], antidote number given but rate '-' (Table 33)
# [7] = […], observed 8 days later (Table 32)
# [8] = […], PPI, 13 days after PPI (Table 31)
# [9] = […], observed 9 days later (Table 29)
# [10] = […], observed 9 days later (Table 30)
# [11] = […], PPI, 14 days after PPI (Table 34)
# [12] = […], observed 8 days later (Table 33)
# [13] = […], observed 7 days after POE (Table 35)
# [14] = […], observed 7 days after POE (Table 36)
# [15] = Antidote 8.96 + Biocide No. 1 8.96 Kg/Ha PPI, Herb. No. 8 0.07, 5 DAP, before herbicide application
# [16] = Antidote 8.96 + Biocide No. 1 8.96 Kg/Ha PPI, Herb. No. 8 0.07 POE, 13 DAP
# [17] = Antidote 8.96 + Biocide No. 1 8.96 Kg/Ha PPI, Herbicide No. 7 0.28 POE, 13 days after planting
# [18] = Herb. […], 5 DAP, before herbicide application
# [19] = Table 14: Herbicide No. 7 (ACCENT) 0.84 Kg/Ha POE + Biocide No. 2 8.96 Kg/Ha PPI + antidote 8.96 Kg/Ha PPI, 13 days after planting, 8 days after herbicide
# [20] = […], 13 days after planting, 8 days after herbicide
# [21] = […], observed 10 days after herbicide application
# [22] = Antidote 4.48 + Biocide No. 1 8.96 Kg/Ha PPI, Herb. No. 8 0.07, 5 DAP, before herbicide application
# [23] = Antidote 4.48 + Biocide No. 1 8.96 Kg/Ha PPI, Herb. No. 8 0.07 POE, 13 DAP
# [24] = Antidote 4.48 + Biocide No. 1 8.96 Kg/Ha PPI, Herbicide No. 7 0.28 POE, 13 days after planting
# [25] = Herb. […], 13 DAP, after herbicide application
# [26] = Table 14: Herbicide No. 7 (ACCENT) 0.84 Kg/Ha POE + Biocide No. 2 8.96 Kg/Ha PPI + antidote 4.48 Kg/Ha PPI, 13 days after planting, 8 days after herbicide
smiles,measurement,setting,value
CC(C)(C#N)OC(=O)COC(c1ccccc1)c1ccccc1 [compound 59],% Inhibition VELE,Velvetleaf (VELE) [1]; [5],20%
same,% Inhibition GIFT,Giant foxtail (GIFT); [5],30%
same,% Inhibition VELE,Velvetleaf (VELE) [2]; [6],0%
same,% Inhibition VELE,Velvetleaf (VELE) [2]; [7],85%
same,% Inhibition Corn,Corn [3]; [6],0%
same,% Inhibition Corn,Corn [3]; [7],15%
same,% Inhibition SHCA,Shattercane (SHCA); [6],0%
same,% Inhibition SHCA,Shattercane (SHCA); [7],80%
same,% Inhibition Corn,Corn [4]; [5],0%
CCC1c2ccccc2CCN1C(=O)C(Cl)Cl (stereo not drawn) [compound 39],% Inhibition VELE,Velvetleaf (VELE) [1]; [8],95%
same,% Inhibition GIFT,Giant foxtail (GIFT); [8],85%
same,% Inhibition VELE,Velvetleaf (VELE) [2]; [9],90%
same,% Inhibition VELE,Velvetleaf (VELE) [2]; [10],80%
same,% Inhibition Corn,Corn [3]; [9],25%
same,% Inhibition Corn,Corn [3]; [10],40%
same,% Inhibition SHCA,Shattercane (SHCA); [9],75%
same,% Inhibition SHCA,Shattercane (SHCA); [10],40%
same,% Inhibition Corn,Corn [4]; [8],50%
CCOC(=O)CNC(c1ccc(OC)cc1)c1ccc(OC)cc1 [compound 43],% Inhibition VELE,Velvetleaf (VELE) [1]; [11],90%
same,% Inhibition GIFT,Giant foxtail (GIFT); [11],70%
same,% Inhibition VELE,Velvetleaf (VELE) [2]; [7],85%
same,% Inhibition VELE,Velvetleaf (VELE) [2]; [12],75%
same,% Inhibition Corn,Corn [3]; [7],55%
same,% Inhibition Corn,Corn [3]; [12],65%
same,% Inhibition SHCA,Shattercane (SHCA); [7],65%
same,% Inhibition SHCA,Shattercane (SHCA); [12],35%
same,% Inhibition Corn,Corn [4]; [11],80%
COC(=O)ON=C(N)COc1cccc2cccnc12 [compound 76],% Inhibition VELE,Velvetleaf (VELE) [1]; in vivo,90%
same,% Inhibition GIFT,Giant foxtail (GIFT); in vivo,70%
same,% Inhibition VELE,Velvetleaf (VELE) [2]; [13],80%
same,% Inhibition VELE,Velvetleaf (VELE) [2]; [14],70%
same,% Inhibition Corn,Corn [3]; [13],55%
same,% Inhibition Corn,Corn [3]; [14],55%
same,% Inhibition SHCA,Shattercane (SHCA); [13],65%
same,% Inhibition SHCA,Shattercane (SHCA); [14],30%
same,% Inhibition Corn,Corn [4]; in vivo,65%
COc1ccc(OC)c(C(=O)CC2OC(=O)c3ccccc32)c1 (stereo not drawn) [compound 77],% Inhibition GIFT,Giant foxtail (GIFT); in vivo,60% and 95% and 85% and 80% and 70%
same,% Inhibition 5 DAP VELE,Velvetleaf (VELE) [2]; [15],0%
same,% Inhibition 13 DAP VELE,Velvetleaf (VELE) [2]; [16],90%
same,% Inhibition VELE,Velvetleaf (VELE) [2]; [17],65%
same,% Inhibition 5 DAP VELE,Velvetleaf (VELE) [2]; [18],0%
same,% Inhibition VELE,Velvetleaf (VELE) [2]; [19],70%
same,% Inhibition VELE,Velvetleaf (VELE) [2]; [20],70%
same,% Inhibition VELE,Velvetleaf (VELE) [2]; [21],80%
same,% Inhibition 5 DAP VELE,Velvetleaf (VELE) [2]; in vivo,20%
same,% Inhibition 13 DAP VELE,Velvetleaf (VELE) [2]; in vivo,95%
same,% Inhibition 5 DAP Corn,Corn [3]; [15],0%
same,% Inhibition 13 DAP Corn,Corn [3]; [16],75%
same,% Inhibition Corn,Corn [3]; [17],25%
same,% Inhibition 5 DAP Corn,Corn [3]; [18],0%
same,% Inhibition Corn,Corn [3]; [19],25%
same,% Inhibition Corn,Corn [3]; [20],15%
same,% Inhibition Corn,Corn [3]; [21],20%
same,% Inhibition 5 DAP Corn,Corn [3]; in vivo,15%
same,% Inhibition 13 DAP Corn,Corn [3]; in vivo,65%
same,activity in reducing corn injury,"Corn [3]; primisulfuron POE + biocides PPI, Tables 8-10",either inactive or weakly active
same,% Inhibition 5 DAP SHCA,Shattercane (SHCA); [15],10%
same,% Inhibition 13 DAP SHCA,Shattercane (SHCA); [16],85%
same,% Inhibition SHCA,Shattercane (SHCA); [17],70%
same,% Inhibition SHCA,Shattercane (SHCA); [19],85%
same,% Inhibition SHCA,Shattercane (SHCA); [20],95%
same,% Inhibition SHCA,Shattercane (SHCA); [21],60%
same,% Inhibition 5 DAP SHCA,Shattercane (SHCA); in vivo,60%
same,% Inhibition 13 DAP SHCA,Shattercane (SHCA); in vivo,90%
same,% Inhibition SHCA,Shattercane (SHCA); in vivo,85% and 55% and 65% and 45%
same,safening activity,"Corn [4]; MON-12000 + OP insecticides, Examples 20-23",low or nil
O=C(O)COC(c1ccccc1)c1ccccc1 [compound 80],% Inhibition VELE,Velvetleaf (VELE) [1]; [11],100%
same,% Inhibition GIFT,Giant foxtail (GIFT); [11],65%
same,% Inhibition VELE,Velvetleaf (VELE) [2]; [7],85%
same,% Inhibition VELE,Velvetleaf (VELE) [2]; [12],75%
same,% Inhibition Corn,Corn [3]; [7],20%
same,% Inhibition Corn,Corn [3]; [12],55%
same,% Inhibition SHCA,Shattercane (SHCA); [7],80%
same,% Inhibition SHCA,Shattercane (SHCA); [12],35%
same,% Inhibition Corn,Corn [4]; [11],40%
O=C(O)c1sc(Cl)nc1C(F)(F)F [compound 68],% Inhibition VELE,Velvetleaf (VELE) [1]; in vivo,80%
same,% Inhibition GIFT,Giant foxtail (GIFT); in vivo,65%
same,% Inhibition VELE,Velvetleaf (VELE) [2]; [13],85%
same,% Inhibition VELE,Velvetleaf (VELE) [2]; [14],60%
same,% Inhibition Corn,Corn [3]; [13],25%
same,% Inhibition Corn,Corn [3]; [14],65%
same,% Inhibition SHCA,Shattercane (SHCA); [13],70%
same,% Inhibition SHCA,Shattercane (SHCA); [14],45%
same,% Inhibition Corn,Corn [4]; in vivo,45%
CCOC(=O)c1sc(Cl)nc1C(F)(F)F [compound 60],% Inhibition VELE,Velvetleaf (VELE) [1]; in vivo,90%
same,% Inhibition GIFT,Giant foxtail (GIFT); in vivo,75%
same,% Inhibition VELE,Velvetleaf (VELE) [2]; [13],80%
same,% Inhibition VELE,Velvetleaf (VELE) [2]; [14],65%
same,% Inhibition Corn,Corn [3]; [13],40%
same,% Inhibition Corn,Corn [3]; [14],60%
same,% Inhibition SHCA,Shattercane (SHCA); [13],60%
same,% Inhibition SHCA,Shattercane (SHCA); [14],35%
same,% Inhibition Corn,Corn [4]; in vivo,60%
CCOC(=O)c1cnoc1-c1ccc(Cl)cc1Cl [compound 30],% Inhibition VELE,Velvetleaf (VELE) [1]; in vivo,90% and 95% and 100%
same,% Inhibition GIFT,Giant foxtail (GIFT); in vivo,65% and 80% and 90% and 75% and 95%
same,% Inhibition 5 DAP VELE,Velvetleaf (VELE) [2]; [22],75%
same,% Inhibition 13 DAP VELE,Velvetleaf (VELE) [2]; [23],95%
same,% Inhibition VELE,Velvetleaf (VELE) [2]; [24],95%
same,% Inhibition 5 DAP VELE,Velvetleaf (VELE) [2]; [18],90%
same,% Inhibition 13 DAP VELE,Velvetleaf (VELE) [2]; [25],95%
same,% Inhibition VELE,Velvetleaf (VELE) [2]; [26],100%
same,% Inhibition VELE,Velvetleaf (VELE) [2]; [20],100%
same,% Inhibition VELE,Velvetleaf (VELE) [2]; [21],95%
same,% Inhibition 5 DAP VELE,Velvetleaf (VELE) [2]; in vivo,80%
same,% Inhibition 13 DAP VELE,Velvetleaf (VELE) [2]; in vivo,95%
same,% Inhibition 5 DAP Corn,Corn [3]; [22],10%
same,% Inhibition 13 DAP Corn,Corn [3]; [23],50%
same,% Inhibition Corn,Corn [3]; [24],55%
same,% Inhibition 5 DAP Corn,Corn [3]; [18],0%
same,% Inhibition Corn,Corn [3]; [26],30%
same,% Inhibition Corn,Corn [3]; [20],25%
same,% Inhibition Corn,Corn [3]; [21],70%
same,% Inhibition 5 DAP Corn,Corn [3]; in vivo,10%
same,% Inhibition 13 DAP Corn,Corn [3]; in vivo,56%
same,% Inhibition Corn,Corn [3]; in vivo,50% and 35% and 40%
same,effect on corn before application of the herbicide,Corn [3]; in vivo,Some injury
same,% Inhibition 5 DAP SHCA,Shattercane (SHCA); [22],50%
same,% Inhibition 13 DAP SHCA,Shattercane (SHCA); [23],75%
same,% Inhibition SHCA,Shattercane (SHCA); [24],85%
same,% Inhibition 13 DAP SHCA,Shattercane (SHCA); [25],95%
same,% Inhibition SHCA,Shattercane (SHCA); [26],90%
same,% Inhibition SHCA,Shattercane (SHCA); [20],90%
same,% Inhibition SHCA,Shattercane (SHCA); [21],70%
same,% Inhibition 5 DAP SHCA,Shattercane (SHCA); in vivo,25%
same,% Inhibition 13 DAP SHCA,Shattercane (SHCA); in vivo,95%
same,% Inhibition SHCA,Shattercane (SHCA); in vivo,90% and 60% and 70%
